Measurements taken from US12516056B2, “Compounds for inhibition of janus kinase 1” (MANKIND PHARMA LTD., priority 2019, dated 2026).
Where a name gives a salt, the structure may show the parent alone. Read-outs that look alike come from different tables or passages of the source.

What was measured:
Recombinant JAK3 = biological target: T1, Recombinant JAK3 (Homo sapiens, UniProt P52333); assay: JAK biochemical assay (LANCE Ultra TR-FRET), JAK3; conditions: recombinant JAK3, TR-FRET; read-out: Biochemical Assay (μM) JAK3
T1 construct: purchased Carna Biosciences
T1 sequence (P52333 1-1124): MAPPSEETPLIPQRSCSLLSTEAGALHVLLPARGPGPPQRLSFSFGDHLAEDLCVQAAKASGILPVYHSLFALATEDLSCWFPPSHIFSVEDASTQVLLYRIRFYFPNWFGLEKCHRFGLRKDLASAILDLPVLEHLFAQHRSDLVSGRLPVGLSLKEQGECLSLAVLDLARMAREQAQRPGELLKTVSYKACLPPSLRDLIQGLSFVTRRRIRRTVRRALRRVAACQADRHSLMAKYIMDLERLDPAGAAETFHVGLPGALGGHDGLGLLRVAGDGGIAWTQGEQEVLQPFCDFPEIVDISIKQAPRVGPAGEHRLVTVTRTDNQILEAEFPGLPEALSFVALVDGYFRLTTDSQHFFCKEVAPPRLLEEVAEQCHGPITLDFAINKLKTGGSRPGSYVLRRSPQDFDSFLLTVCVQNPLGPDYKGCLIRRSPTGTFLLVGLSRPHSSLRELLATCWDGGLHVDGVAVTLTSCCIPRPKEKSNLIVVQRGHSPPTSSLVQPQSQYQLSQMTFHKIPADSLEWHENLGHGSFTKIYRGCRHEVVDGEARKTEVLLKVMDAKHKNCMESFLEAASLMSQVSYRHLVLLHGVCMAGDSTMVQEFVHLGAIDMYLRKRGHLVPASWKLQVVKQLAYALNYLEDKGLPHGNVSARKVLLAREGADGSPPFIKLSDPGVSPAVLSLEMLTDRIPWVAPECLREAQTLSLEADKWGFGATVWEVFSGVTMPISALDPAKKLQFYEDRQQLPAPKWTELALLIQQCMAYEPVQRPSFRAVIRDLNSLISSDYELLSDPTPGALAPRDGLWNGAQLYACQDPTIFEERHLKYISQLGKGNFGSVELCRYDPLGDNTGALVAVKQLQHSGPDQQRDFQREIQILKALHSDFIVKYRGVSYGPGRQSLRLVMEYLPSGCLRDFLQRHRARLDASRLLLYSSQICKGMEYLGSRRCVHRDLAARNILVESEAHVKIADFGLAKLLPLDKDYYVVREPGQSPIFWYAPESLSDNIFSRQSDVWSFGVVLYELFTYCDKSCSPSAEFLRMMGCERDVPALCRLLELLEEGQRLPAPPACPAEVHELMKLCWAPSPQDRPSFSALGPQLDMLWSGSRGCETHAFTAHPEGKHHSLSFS
In short: (§1)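 TR-FRET read-out of ULight substrate phosphorylation by recombinant kinase gives % inhibition relative to vehicle. The assay buffer is HEPES pH 7.5 with EGTA, MgCl2, DTT and Tween-20.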

[1] = system: IFN-γ production in NK 92 cells by IL-12; assay: IFN-γ production in NK 92 cells by IL-12 (ELISA); conditions: NK92, IFN-γ secretion, read-out: Cell Based Assay (μM) NK-92/IL-2/IFN-γ
[2] = system: STAT5 phosphorylation by IL-2 in HT-2 cells; assay: STAT5 phosphorylation by IL-2 in HT-2 cells (HTRF); assay type: cell-based; conditions: IL-2 50 U/ml, pSTAT5 HTRF, read-out: Cell Based Assay (μM) HT-2/IL-2/pSTAT5
In short: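 Readout is HTRF detection of phospho-STAT5 in lysates, corrected for signal from unstimulated cells. Before lysis, HT-2 cells starved in 10% FBS medium received compound for 30 min (0.2% DMSO final, 37 °C), followed by 50 U/ml recombinant human IL-2 for 20 min.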

Recombinant JAK1 = biological target: T2, Recombinant JAK1 (Homo sapiens, UniProt P23458); assay: JAK biochemical assay (LANCE Ultra TR-FRET), JAK1; conditions: recombinant JAK1, TR-FRET; read-out: Biochemical Assay (μM) JAK1
T2 construct: purchased Carna Biosciences
T2 sequence (P23458 whole entry): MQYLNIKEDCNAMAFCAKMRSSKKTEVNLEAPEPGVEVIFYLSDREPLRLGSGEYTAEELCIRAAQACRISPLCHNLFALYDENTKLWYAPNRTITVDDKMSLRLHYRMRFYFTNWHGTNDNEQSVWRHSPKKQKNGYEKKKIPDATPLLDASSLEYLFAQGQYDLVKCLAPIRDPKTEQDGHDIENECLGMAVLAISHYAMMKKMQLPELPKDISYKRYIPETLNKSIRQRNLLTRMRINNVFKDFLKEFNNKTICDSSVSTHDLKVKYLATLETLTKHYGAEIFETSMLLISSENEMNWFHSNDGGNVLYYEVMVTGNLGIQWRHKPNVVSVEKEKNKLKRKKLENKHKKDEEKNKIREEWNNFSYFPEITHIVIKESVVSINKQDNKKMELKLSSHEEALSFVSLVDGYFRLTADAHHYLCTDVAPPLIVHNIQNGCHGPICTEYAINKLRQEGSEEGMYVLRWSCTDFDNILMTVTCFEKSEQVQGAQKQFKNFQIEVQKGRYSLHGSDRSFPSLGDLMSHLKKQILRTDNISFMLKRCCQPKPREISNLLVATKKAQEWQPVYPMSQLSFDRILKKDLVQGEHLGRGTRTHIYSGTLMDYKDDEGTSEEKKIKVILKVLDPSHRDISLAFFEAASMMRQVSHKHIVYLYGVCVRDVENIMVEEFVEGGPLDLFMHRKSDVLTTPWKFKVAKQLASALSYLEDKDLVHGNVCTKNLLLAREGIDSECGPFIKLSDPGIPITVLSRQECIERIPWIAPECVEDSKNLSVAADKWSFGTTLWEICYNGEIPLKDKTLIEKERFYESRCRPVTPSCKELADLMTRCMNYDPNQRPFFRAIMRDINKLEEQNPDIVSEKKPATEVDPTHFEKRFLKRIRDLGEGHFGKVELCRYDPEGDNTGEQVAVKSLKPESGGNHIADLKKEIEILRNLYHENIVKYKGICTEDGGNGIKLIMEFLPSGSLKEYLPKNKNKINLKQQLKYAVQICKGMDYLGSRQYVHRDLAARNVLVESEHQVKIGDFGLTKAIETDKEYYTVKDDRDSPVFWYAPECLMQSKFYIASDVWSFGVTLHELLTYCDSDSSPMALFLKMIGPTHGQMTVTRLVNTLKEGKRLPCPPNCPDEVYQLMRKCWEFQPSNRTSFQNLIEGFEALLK
In short: as §1

[3] = system: STAT3 phosphorylation by IL-6 in TF-1 cells; assay: JAK cellular assay: STAT3 phosphorylation by IL-6 in TF-1 cells (HTRF); assay type: cell-based; conditions: IL-6 30 ng/ml, pSTAT3 HTRF, read-out: Cell Based Assay (μM) TF-1/IL-6/pSTAT3
In short: (§2)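 Phospho-STAT3 (IL-6, 30 ng/ml) and phospho-STAT5 (GMCSF, 5 ng/ml) read by HTRF in lysates after 20 min cytokine exposure, minus unstimulated-cell background. Cells were serum-starved overnight, plated at 120,000/well, given compound 30 min at 37 °C beforehand; DMSO 0.2% final.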

Recombinant TYK2 = biological target: T3, Recombinant TYK2 (Homo sapiens, UniProt P29597); assay: JAK biochemical assay (LANCE Ultra TR-FRET), TYK2; conditions: recombinant TYK2, TR-FRET; read-out: Biochemical Assay (μM) TYK2
T3 construct: purchased Carna Biosciences
T3 sequence (P29597 whole entry): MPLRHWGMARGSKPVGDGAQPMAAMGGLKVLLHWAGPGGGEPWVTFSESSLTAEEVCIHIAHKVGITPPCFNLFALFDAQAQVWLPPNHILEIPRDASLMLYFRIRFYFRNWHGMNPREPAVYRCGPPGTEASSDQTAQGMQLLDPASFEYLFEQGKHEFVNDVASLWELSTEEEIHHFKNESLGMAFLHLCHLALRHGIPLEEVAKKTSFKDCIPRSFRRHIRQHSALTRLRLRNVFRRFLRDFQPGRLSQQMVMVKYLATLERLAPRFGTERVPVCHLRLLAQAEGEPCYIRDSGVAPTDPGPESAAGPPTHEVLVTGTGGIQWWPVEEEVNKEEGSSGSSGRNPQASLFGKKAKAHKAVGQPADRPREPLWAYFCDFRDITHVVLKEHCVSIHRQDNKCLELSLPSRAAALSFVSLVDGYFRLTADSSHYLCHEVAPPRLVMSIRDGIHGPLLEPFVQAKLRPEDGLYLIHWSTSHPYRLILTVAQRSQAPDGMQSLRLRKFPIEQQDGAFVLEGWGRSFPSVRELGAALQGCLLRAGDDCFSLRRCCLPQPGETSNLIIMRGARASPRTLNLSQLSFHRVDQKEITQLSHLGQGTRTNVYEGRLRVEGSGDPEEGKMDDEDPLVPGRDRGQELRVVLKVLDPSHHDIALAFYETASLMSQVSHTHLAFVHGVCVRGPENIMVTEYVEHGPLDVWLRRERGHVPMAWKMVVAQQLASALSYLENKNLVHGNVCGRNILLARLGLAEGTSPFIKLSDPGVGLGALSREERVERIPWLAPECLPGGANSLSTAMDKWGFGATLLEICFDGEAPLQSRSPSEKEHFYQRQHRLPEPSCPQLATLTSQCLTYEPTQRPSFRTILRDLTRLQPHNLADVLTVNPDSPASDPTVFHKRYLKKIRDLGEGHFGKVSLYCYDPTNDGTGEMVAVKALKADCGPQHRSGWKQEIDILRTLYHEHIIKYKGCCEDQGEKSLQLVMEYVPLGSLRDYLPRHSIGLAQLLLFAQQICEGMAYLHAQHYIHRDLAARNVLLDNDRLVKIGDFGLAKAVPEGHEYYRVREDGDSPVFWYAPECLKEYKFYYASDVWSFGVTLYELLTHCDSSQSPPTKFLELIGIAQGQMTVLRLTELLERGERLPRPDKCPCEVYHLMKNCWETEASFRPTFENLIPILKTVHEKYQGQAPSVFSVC
In short: as §1

[4] = system: STAT5 phosphorylation by GMCSF in TF-1 cells; assay: JAK cellular assay: STAT5 phosphorylation by GMCSF in TF-1 cells (HTRF); assay type: cell-based; conditions: TF-1 cells, GMCSF 5 ng/ml, pSTAT5 HTRF, read-out: Cell Based Assay (μM) TF-1/GMCSF/pSTAT5
In short: as §2

Recombinant JAK2 = biological target: T4, Recombinant JAK2 (Homo sapiens, UniProt O60674); assay: JAK biochemical assay (LANCE Ultra TR-FRET), JAK2; conditions: recombinant JAK2, TR-FRET; read-out: Biochemical Assay (μM) JAK2
T4 construct: purchased Carna Biosciences
T4 sequence (O60674 whole entry): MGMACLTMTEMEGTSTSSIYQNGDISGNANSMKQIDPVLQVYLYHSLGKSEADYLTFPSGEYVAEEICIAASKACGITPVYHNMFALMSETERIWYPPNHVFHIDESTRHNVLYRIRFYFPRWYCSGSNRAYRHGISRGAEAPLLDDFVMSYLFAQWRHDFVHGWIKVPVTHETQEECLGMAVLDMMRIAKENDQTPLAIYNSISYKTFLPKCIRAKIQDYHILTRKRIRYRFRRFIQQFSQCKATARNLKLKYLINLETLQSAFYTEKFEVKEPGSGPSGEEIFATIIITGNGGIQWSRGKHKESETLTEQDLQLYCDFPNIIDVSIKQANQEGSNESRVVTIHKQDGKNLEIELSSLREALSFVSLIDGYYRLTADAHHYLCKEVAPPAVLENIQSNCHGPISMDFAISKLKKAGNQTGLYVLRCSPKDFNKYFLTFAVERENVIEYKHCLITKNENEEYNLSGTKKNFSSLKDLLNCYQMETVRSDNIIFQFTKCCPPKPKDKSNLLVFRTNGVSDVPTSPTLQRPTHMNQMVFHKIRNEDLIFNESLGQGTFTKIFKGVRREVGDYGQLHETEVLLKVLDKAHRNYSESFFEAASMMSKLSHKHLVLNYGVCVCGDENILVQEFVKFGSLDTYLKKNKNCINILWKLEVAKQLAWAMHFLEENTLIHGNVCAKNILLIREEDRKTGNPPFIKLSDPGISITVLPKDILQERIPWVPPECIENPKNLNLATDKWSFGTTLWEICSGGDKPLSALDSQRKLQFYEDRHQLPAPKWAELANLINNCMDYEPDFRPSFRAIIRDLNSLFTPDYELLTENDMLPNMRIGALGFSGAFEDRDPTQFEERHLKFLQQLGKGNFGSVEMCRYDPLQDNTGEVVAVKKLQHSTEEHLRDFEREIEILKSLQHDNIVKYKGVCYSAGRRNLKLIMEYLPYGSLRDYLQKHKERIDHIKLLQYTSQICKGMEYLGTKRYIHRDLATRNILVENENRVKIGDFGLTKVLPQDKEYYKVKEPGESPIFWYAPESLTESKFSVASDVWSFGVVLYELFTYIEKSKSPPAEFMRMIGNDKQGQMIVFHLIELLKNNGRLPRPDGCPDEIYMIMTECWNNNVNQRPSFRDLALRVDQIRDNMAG
In short: as §1

IC50 (Recombinant JAK3)	IC50 [1]	IC50 ([2]; HT2, HT-2 cells)	IC50 (Recombinant JAK1)	IC50 ([3]; Homo sapiens, TF-1, TF-1 cells)	IC50 (Recombinant TYK2)	IC50 ([4]; Homo sapiens)	IC50 ([2]; HT-2 cells)	IC50 ([3]; TF-1 cells)	IC50 (Recombinant JAK2)	IC50 [4]	Compound
< 0.1 µM		> 0.5 µM	< 0.1 µM	> 0.5 µM	> 0.1 µM	> 1 µM			< 0.1 µM		CNCCOC(c1ccc(-n2cc(-c3ccnc4[nH]cnc34)cn2)nc1)C(F)(F)F (stereo not shown) [Example 1228, 2-(1-(6-(4-(3H-imidazo[4,5-b]pyridin-7-yl)-1H-pyrazol-1-yl)pyridin-3-yl)-2,2,2-trifluoroethoxy)-N-methylethanamine]
	> 1 µM	0.47 µM	0.006 µM	0.14 µM	0.67 µM	> 1 µM					CN1CCC([C@](O)(c2ccc(-n3cc(-c4ccnc5[nH]cnc45)cn3)nc2)C(F)(F)F)C1 (stereo partly drawn) [Example 1234, (S)-1-(6-(4-(3H-imidazo[4,5-b]pyridin-7-yl)-1H-pyrazol-1-yl)pyridin-3-yl)-2,2,2-trifluoro-1-(1-methylpyrrolidin-3-yl)ethanol]
	> 1 µM	0.55 µM		0.36 µM	> 1 µM	> 1 µM			> 0.03 µM		CN1CCC([C@@](O)(c2ccc(-n3cc(-c4ccnc5[nH]cnc45)cn3)nc2)C(F)(F)F)C1 (stereo partly drawn) [Example 1235, (R)-1-(6-(4-(3H-imidazo[4,5-b]pyridin-7-yl)-1H-pyrazol-1-yl)pyridin-3-yl)-2,2,2-trifluoro-1-(1-methylpyrrolidin-3-yl)ethanol]
0.005 µM	> 3 µM	> 0.5 µM		0.19 µM		> 1 µM			0.01 µM		CC(C)N1CC(C(O)(c2ccc(-n3cc(-c4ccnc5[nH]cnc45)cn3)nc2)C(F)(F)F)C1 (stereo not shown) [Example 1237, 1-(6-(4-(3H-imidazo[4,5-b]pyridin-7-yl)-1H-pyrazol-1-yl)pyridin-3-yl)-2,2,2-trifluoro-1-(1-isopropylazetidin-3-yl)ethanol]
< 0.1 µM		> 0.75 µM	< 0.1 µM	> 0.5 µM	> 1 µM	> 1 µM			> 0.1 µM		CC(C)NCCOC(c1ccc(-n2cc(-c3ccnc4[nH]cnc34)cn2)nc1)C(F)(F)F (stereo not shown) [Example 1241, N-(2-(1-(6-(4-(3H-imidazo[4,5-b]pyridin-7-yl)-1H-pyrazol-1-yl)pyridin-3-yl)-2,2,2-trifluoroethoxy)ethyl)propan-2-amine, TFA salt]
< 0.1 µM		> 1 µM	< 0.1 µM	> 1 µM	> 1 µM	> 1 µM			< 0.1 µM		O[C@@](c1ccc(-n2cc(-c3ccnc4[nH]cnc34)cn2)nc1)(C1CCN(C2COC2)C1)C(F)(F)F (stereo partly drawn) [Example 1242, (R)-1-(6-(4-(3H-imidazo[4,5-b]pyridin-7-yl)-1H-pyrazol-1-yl)pyridin-3-yl)-2,2,2-trifluoro-1-(1-(oxetan-3-yl)pyrrolidin-3-yl)ethanol]
< 0.1 µM		> 1 µM	< 0.1 µM	> 1 µM	> 1 µM	> 1 µM			< 0.1 µM		O[C@](c1ccc(-n2cc(-c3ccnc4[nH]cnc34)cn2)nc1)(C1CCN(C2COC2)C1)C(F)(F)F (stereo partly drawn) [Example 1243, (S)-1-(6-(4-(3H-imidazo[4,5-b]pyridin-7-yl)-1H-pyrazol-1-yl)pyridin-3-yl)-2,2,2-trifluoro-1-(1-(oxetan-3-yl)pyrrolidin-3-yl)ethanol]

Second part, the compound before the results:

Compound	IC50 (Recombinant JAK3)	IC50 [1]	IC50 ([2]; HT2, HT-2 cells)	IC50 (Recombinant JAK1)	IC50 ([3]; Homo sapiens, TF-1, TF-1 cells)	IC50 (Recombinant TYK2)	IC50 ([4]; Homo sapiens)	IC50 ([2]; HT-2 cells)	IC50 ([3]; TF-1 cells)	IC50 (Recombinant JAK2)	IC50 [4]
CS(=O)(=O)CC[C@H](c1ccc(-n2cc(-c3ccnc4[nH]cnc34)cn2)nc1)C(F)(F)F [Example 1182, 7-(1-(5-((R)-1,1,1-trifluoro-4-(methylsulfonyl)butan-2-yl)pyridin-2-yl)-1H-pyrazol-4-yl)-3H-imidazo[4,5-b]pyridine]	0.041 µM	> 3 µM	0.9 µM	0.015 µM	0.35 µM	> 1 µM	> 1 µM				
CNCCC(c1ccc(-n2cc(-c3ccnc4[nH]cnc34)cn2)nc1)C(F)(F)F (stereo not shown) [Example 1200, 3-(6-(4-(3H-imidazo[4,5-b]pyridin-7-yl)-1H-pyrazol-1-yl)pyridin-3-yl)-4,4,4-trifluoro-N-methylbutan-1-amine]	0.009 µM			0.023 µM		0.52 µM		0.6 µM	0.1 µM	0.015 µM	1 µM
CC(C)NCCC(c1ccc(-n2cc(-c3ccnc4[nH]cnc34)cn2)nc1)C(F)(F)F (stereo not shown) [Example 1203, 3-(6-(4-(3H-imidazo[4,5-b]pyridin-7-yl)-1H-pyrazol-1-yl)pyridin-3-yl)-4,4,4-trifluoro-N-isopropylbutan-1-amine]	< 0.1 µM		> 0.5 µM	< 0.1 µM	> 0.1 µM	> 0.5 µM	> 1 µM			< 0.1 µM	
CS(=O)(=O)CCC(O)(c1ccc(-n2cc(-c3ccnc4[nH]cnc34)cn2)nc1)C(F)(F)F (stereo not shown) [Example 1223, 2-(6-(4-(3H-imidazo[4,5-b]pyridin-7-yl)-1H-pyrazol-1-yl)pyridin-3-yl)-1,1,1-trifluoro-4-(methylsulfonyl)butan-2-ol]	0.004 µM		> 0.5 µM	0.002 µM	> 0.1 µM	0.39 µM	> 1 µM			0.015 µM	
CC(C)N1CCC([C@](O)(c2ccc(-n3cc(-c4ccnc5[nH]cnc45)cn3)nc2)C(F)(F)F)C1 (stereo partly drawn) [Example 1226, (S)-1-(6-(4-(3H-imidazo[4,5-b]pyridin-7-yl)-1H-pyrazol-1-yl)pyridin-3-yl)-2,2,2-trifluoro-1-(1-isopropylpyrrolidin-3-yl)ethanol]	> 0.03 µM		> 0.75 µM	< 0.01 µM	> 0.5 µM	> 1 µM	> 1 µM			> 0.03 µM	
N#CCCC(O)(c1ccc(-n2cc(-c3ccnc4[nH]cnc34)cn2)nc1)C(F)(F)F (stereo not shown) [Example 1227, 4-(6-(4-(3H-imidazo[4,5-b]pyridin-7-yl)-1H-pyrazol-1-yl)pyridin-3-yl)-5,5,5-trifluoro-4-hydroxypentanenitrile]	< 0.1 µM		> 0.5 µM	< 0.1 µM	> 0.1 µM	> 0.1 µM	> 0.75 µM			< 0.1 µM	
